# Experimental data as given in paper PMC8933379, “Evaluation of the absolute oral bioavailability of the anaplastic lymphoma kinase/c-ROS oncogene 1 kinase inhibitor lorlatinib in healthy participants” (Cancer Chemotherapy and Pharmacology, 2021).
# Where two headings read alike, the source gives them in different places.
# Assays:
# [1] = design: method as in earlier work; conditions: cited from earlier work
# [2] = Absolute oral bioavailability crossover study: plasma pharmacokinetics (LC-MS/MS, non-compartmental analysis); format: in vivo, human; conditions: for half-life: read-out: t½ (plasma terminal half-life) (converted); for Tmax: median (range)
# Procedure: This was an open-label, phase 1, randomized two-sequence, two-treatment, two-period, crossover study in healthy participants. Approximately 12 participants were to be randomized in a 1:1 ratio to receive one of two treatment sequences: lorlatinib 50 mg IV dose (Treatment A) followed by a lorlatinib 100 mg single oral dose (Treatment B), or lorlatinib oral dose followed by lorlatinib IV dose. The IV dose is 100% bioavailable and was, therefore, considered to be the reference in this study. The reference lorlatinib 50 mg single IV dose was administered as 250 mL IV solution (0.20 mg/mL) over approximately 1.25 h at a constant rate in the morning of Day 1. Lorlatinib 100 mg single oral dose was administered as 4 × 25 mg immediate-release free base tablets in the morning of Day 1 with 240 mL ambient temperature water. Participants were instructed to swallow the lorlatinib tablets whole and to not manipulate or chew the tablets prior to swallowing. Both treatments were administered after an overnight fast of at least 10 h. To standardise the conditions on PK sampling days, during the first 4 h after dosing or start of the IV dose, participants were to refrain from eating and drinking beverages other than water or lying down (unless required for safety monitoring). Period 1 was defined as a 7-day period in which participants received Treatment A or B. Period 2 was defined as the 7-day period after Period 1, in which participants received the alternative treatment to before. Following treatment administration, participants were to undergo PK sampling for 144 h with a washout period of at least 10 days between successive lorlatinib doses. The study was conducted at a single Pfizer Clinical Research Unit (CRU) in New Haven, Connecticut, and participants were confined to the CRU from the time of admission (Day 0) until discharge (Day 7 of Period 2).
# The detection range was 0.05–50 ng/mL or 1 to 1000 ng/mL for low and high concentration samples, respectively. […] Calibration standard responses were linear over the range of 2.50–2500 ng/mL; using a weighted (l/concentration^2) linear least squares regression. […] The lower limit of quantification (LLOQ) for lorlatinib and its metabolite was 2.50 ng/mL.
# PK parameter values were calculated using an internally validated software system (eNCA). Actual sample collection times were used for the PK parameter analysis and samples below the LLOQ were set to 0. Maximum observed plasma concentration, Cmax, and time when Cmax was reached, Tmax, were determined from the observed values. The area under the curve (AUC) from time 0 to the time of the last quantifiable concentration (AUClast) was estimated using the linear/log trapezoidal method. AUCinf was calculated as AUClast + (Clast/kel), where Clast was the predicted plasma concentration at the last quantifiable time point estimated from the log-linear regression analysis and kel was the terminal phase rate constant calculated by a linear regression of the log-linear concentration–time curve. PK parameters based on terminal phase estimation were reported only where a well-characterized terminal phase was observed. A well-characterized terminal phase is defined as one with at least three data points, r^2 ≥ 0.9, and AUCextrap% ≤ 20. Metabolite-to-parent ratios were calculated after adjustment for molecular weights. Clearance (CL) for the IV dose and CL/F for the oral dose were calculated as dose/AUCinf. Volume of distribution during the terminal phase (area) was calculated as IV dose/(kel×AUCinf).
# The hepatic extraction ratio was calculated for each participant as the hepatic blood clearance divided by hepatic blood flow.
# Summary profiles (mean) of the lorlatinib plasma concentration–time data were plotted by treatment. Nominal PK sampling time was used for summary statistics and summary plots by sampling time.
# [3] = planned IV dose formulation, rabbits; earlier toxicology studies, no reference given; cited from earlier work
# [4] = test system: human blood; conditions: planned IV dose formulation, human blood in vitro; earlier toxicology studies, no reference given; cited from earlier work
# [5] = design: method as in PMID 33937953; conditions: co-administered with modafinil; cited from earlier work
# [6] = 100 mg oral tablets vs 50 mg IV, healthy participants, n = 11
# [7] = lorlatinib 100 mg oral tablets, n = 11, geometric mean (geometric %CV)
smiles,measurement,setting,value
"C[C@H]1Oc2cc(cnc2N)-c2c(nn(C)c2C#N)CN(C)C(=O)c2ccc(F)cc21 [Lorlatinib, (10R)-7-amino-12-fluoro-2,10,16-trimethyl-15-oxo-10,15,16,17-tetrahydro-2H-8,4-(metheno)pyrazolo[4,3-h][2,5,11]-benzoxadiazacyclotetradecine-3-carbonitrile]","Oral apparent clearance (CL/F), mean (CV%)",[1]; after a 100 mg single oral dose,11 L/h
same,"Oral apparent clearance (CL/F), mean (CV%)",[1]; at steady-state,18 L/h
same,"Plasma terminal half-life (t½), mean (CV%)",[1],approximately 24 h
same,"Absolute oral bioavailability: ratio (test/reference) of adjusted means, AUCinf (dn)",[2]; [6],80.78%
same,"Ratio (test/reference) of adjusted means, AUClast (dn)",[2]; [6],81.65%
same,"Absolute oral bioavailability: ratio (test/reference) of adjusted means, AUCinf (dn)","[2]; 100 mg oral tablets vs 50 mg IV, healthy participants, n = 11, listed as lorlatinib",81%
same,"Inter-subject variability (%CV) for AUCinf, AUClast and Cmax",[2]; both oral administration and IV dosing,30–38%
same,AUC(0-inf),"[2]; human, plasma, iv, 50 mg, Reference, lorlatinib 50 mg IV, mixed-effects model, read-out: AUCinf (dn), adjusted geometric mean",5190 ng·h/mL
same,AUC(0-t),"[2]; human, plasma, iv, 50 mg, Reference, lorlatinib 50 mg IV, mixed-effects model, read-out: AUClast (dn), adjusted geometric mean",5030 ng·h/mL
same,AUC(0-inf),"[2]; human, plasma, iv, 50 mg, lorlatinib 50 mg IV, dose normalized, n = 11, geometric mean (geometric %CV), read-out: AUCinf (dn)",5150 ng·h/mL
same,AUC(0-t),"[2]; human, plasma, iv, 50 mg, lorlatinib 50 mg IV, dose normalized, n = 11, geometric mean (geometric %CV), read-out: AUClast (dn)",4990 ng·h/mL
same,half-life,"[2]; human, plasma, iv, 50 mg, lorlatinib 50 mg IV, n = 11, arithmetic mean ± SD",27 h
same,AUC(0-inf),"[2]; human, plasma, iv, 50 mg, lorlatinib 50 mg IV, n = 11, geometric mean (geometric %CV), read-out: AUCinf",5150 ng·h/mL
same,AUC(0-t),"[2]; human, plasma, iv, 50 mg, lorlatinib 50 mg IV, n = 11, geometric mean (geometric %CV), read-out: AUClast",4990 ng·h/mL
same,AUC(0-inf),"[2]; human, plasma, oral, 100 mg, Test, lorlatinib 100 mg oral tablets, mixed-effects model, normalized to 50 mg IV dose, read-out: AUCinf (dn), adjusted geometric mean",4190 ng·h/mL
same,half-life,"[2]; human, plasma, po, 100 mg, lorlatinib 100 mg oral tablets, n = 11, arithmetic mean ± SD",~25.5 h
same,AUC(0-inf),"[2]; human, plasma, po, 100 mg, lorlatinib 100 mg oral tablets, single dose, fasted, n = 11, geometric mean (geometric %CV), read-out: AUCinf",8290 ng·h/mL
same,Cmax,"[2]; human, plasma, lorlatinib 50 mg IV, dose normalized, n = 11, geometric mean (geometric %CV), read-out: Cmax (dn)",392 ng/mL
same,clearance,"[2]; human, plasma, lorlatinib 50 mg IV, n = 11, geometric mean (geometric %CV)",162 mL/min
same,Vd,"[2]; human, plasma, lorlatinib 50 mg IV, n = 11, geometric mean (geometric %CV), read-out: Vss",305 L
same,Tmax,"[2]; human, plasma, lorlatinib 50 mg IV, n = 11, read-out: Tmax",1.28 h
same,Vd/F,"[2]; human, plasma, lorlatinib 100 mg oral tablets, n = 11, geometric mean (geometric %CV), read-out: Vz/F",440 L
same,Cmax,"[2]; lorlatinib 50 mg IV, n = 11, geometric mean (geometric %CV)",392 ng/mL
same,t½ (plasma terminal half-life),"[2]; lorlatinib 100 mg oral tablets, n = 11, arithmetic mean ± SD",25.54 ± 3.75 h
same,AUClast,[2]; [7],8109 (33) ng.h/mL
same,CL/F,[2]; [7],12.05 (34) L/h
same,Cmax,[2]; [7],501 ng/mL
same,Tmax,"[2]; lorlatinib 100 mg oral tablets, n = 11",1.50 (1.00–4.02) h
same,Eh (hepatic extraction ratio),"[2]; printed in the 100 mg oral column, plasma clearance × blood-to-plasma ratio 0.985 / hepatic blood flow 90 L/hr, geometric mean (geometric %CV)",0.118
same,Local vascular tissue irritation,[3],did not indicate any local vascular tissue irritation
same,Potential to cause hemolysis,[4],did not indicate any potential to cause hemolysis
same,AUCinf reduction,[5],23%
